Assay results published in patent publication US5200409A, “Composition and use of substituted 1,3-dithiolo-and 1,4-dithiinoquinoxalines as an antimicrobial” (The Dow Chemical Company, priority 1992, dated 1993).
≈ marks a conversion by molar mass, not a printed value. Like-named read-outs stand apart in the source and are kept apart here.

Legend:
Bacillus subtilis (Bs) = test: Minimum inhibitory concentration (MIC) in nutrient agar; assay type: cell-based, Bacillus subtilis ATCC 8473
Protocol: (§1) The minimum inhibitory concentration (MIC) for the compounds listed in Table I is determined for 9 bacteria, using nutrient agar: and 7 yeast and fungi, using malt yeast agar. A one percent solution of the test compound is prepared in a mixture of acetone and water. Nutrient agar is prepared at pH 6.8, representing a neutral medium, and at pH 8.2, representing an alkaline medium. The nutrient agars are prepared by adding 23 g of nutrient agar to one-liter of deionized water. In addition, the alkaline medium is prepared by adjusting a 0.04M solution of N-[tris-(hydroxymethyl)methyl]-glycine buffered deionized water with concentrated sodium hydroxide to a pH of […]. Malt yeast agar is prepared by adding 3 g yeast extract and 45 g malt agar per liter of deionized water. The specific agar is dispensed in 30 ml aliquots into 25×200 mm test tubes, capped and autoclaved for 15 minutes at 115° C. The test tubes containing the agar are cooled in a water bath until the temperature of the agar is 48° C. Then, an appropriate amount of the one percent solution of the test compound is added (except in the controls where no compound is added) to the respective test tubes so that the final concentrations are 500, 250, 100, 50, 25, 10, 5, 2.5, 1.0 and zero parts per million of the test compound in the agar, thus having a known concentration of test compound dispersed therein. The contents of the test tubes are then transferred to respective petri plates. After drying for 24 hours, the petri plates containing nutrient agar are inoculated with bacteria and those containing malt yeast agar are inoculated with yeast and fungi.
(§2) The inoculation with bacteria is accomplished by using the following procedure. Twenty-four hour-cultures of each of the bacteria are prepared by incubating the respective bacteria in tubes containing nutrient broth for 24 hours at 30° C. in a shaker. Dilutions of each of the 24 hour-cultures are made so that nine separate suspensions (one for each of the nine test bacteria) are made, each containing 10^8 colony forming units (CFU) per ml of suspension of a particular bacteria. Aliquots of 0.3 ml of each of the bacterial suspensions are used to fill the individual wells of Steer's Replicator. For each microbial suspension, 0.3 ml was used to fill three wells (i.e., three wells of 0.3 ml each) so that for the nine different bacteria, 27 wells are filled. The Steer's Replicator is then used to inoculate both the neutral and alkaline pH nutrient agar petri plates.
(§3) The inoculated petri plates are incubated at 30° C. for 48 hours and then read to determine if the test compound which is incorporated into the agar prevented growth of the respective bacteria.
(§4) Table II lists the bacteria, yeast and fungi used in the MIC test described above along with their respective American Type Culture Collection (ATCC) identification numbers.

[1] = system: Enterobacter aerogenes (Ea); test: as above; assay type: cell-based, Enterobacter aerogenes ATCC 13048; conditions: Klebsiella aerogenes, 48 h
Protocol: as §1, §2, §3, §4

Escherichia coli (Ec) = test: as above; assay type: cell-based, Escherichia coli ATCC 11229; conditions: 48 h
Protocol: as §1, §2, §3, §4

[2] = system: Klebsiella pneumoniae (Kp); test: as above; assay type: cell-based, Klebsiella pneumoniae ATCC 8308
Protocol: as §1, §2, §3, §4

Proteus vulgaris (Pv) = test: as above; assay type: cell-based, Proteus vulgaris ATCC 881; conditions: 48 h
Protocol: as §1, §2, §3, §4

[3] = system: Pseudomonas aeruginosa (PRD-10); test: as above; assay type: cell-based, Pseudomonas aeruginosa ATCC 15442; conditions: 48 h
Protocol: as §1, §2, §3, §4

[4] = system: Pseudomonas aeruginosa (Pa); test: as above; assay type: cell-based, Pseudomonas aeruginosa ATCC 10145; conditions: 48 hours
Protocol: as §1, §2, §3, §4

[5] = system: Salmonella choleraesuis (Sc); test: as above; assay type: cell-based, Salmonella choleraesuis ATCC 10708; conditions: Salmonella enterica, 48 h
Protocol: as §1, §2, §3, §4

[6] = system: Staphylococcus aureus (Sa); test: as above; assay type: cell-based, Staphylococcus aureus ATCC 6538
Protocol: as §1, §2, §3, §4

Aspergillus niger (An) = test: Minimum inhibitory concentration (MIC) in malt yeast agar; assay type: cell-based, Aspergillus niger ATCC 16404; conditions: malt yeast agar; 30° C.; 72 hours for fungi; read-out: Minimum Inhibitory Concentration, An
Protocol: as §1
(§5) The inoculation with the yeast and fungi is accomplished as follows. Cultures of yeast and fungi are incubated for seven days on malt yeast agar at 30° C. These cultures are used to prepare suspensions by the following procedure. A suspension of each organism is prepared by adding 10 ml of sterile saline and 10 microliters of octylphenoxy polyethoxy ethanol to the agar slant of yeast or fungi. The sterile saline/octylphenoxy polyethoxy ethanol solution is then agitated with a sterile swab to suspend the microorganism grown on the slant. Each resulting suspension is diluted into sterile saline (1 part suspension: 9 parts sterile saline). Aliquots of these dilutions are placed in individual wells of Steer's Replicator and petri plates inoculated as previously described. The petri plates are incubated at 30° C. and read after 48 hours for yeast and 72 hours for fungi.
as §4

Candida albicans (Ca) = test: as above; assay type: cell-based, Candida albicans ATCC 10231; conditions: malt yeast agar; 30° C.; 48 hours for yeast; read-out: Minimum Inhibitory Concentration, Ca
Protocol: as §1, §5, §4

[7] = system: Penicillium chrysogenum (Pc); test: as above; assay type: cell-based, Penicillium chrysogenum ATCC 9480; conditions: malt yeast agar; 30° C.; 72 hours for fungi; read-out: Minimum Inhibitory Concentration, Pc
Protocol: as §1, §5, §4

[8] = system: Saccharomyces cerevisiae (Sc); test: as above; assay type: cell-based, Saccharomyces cerevisiae ATCC 4105; conditions: malt yeast agar, 30° C., 48 hours for yeast, read-out: Minimum Inhibitory Concentration, Sc
Protocol: as §1, §5, §4

Trichoderma viride (Tv) = test: as above; assay type: cell-based, Trichoderma viride ATCC 8678; conditions: malt yeast agar; 30° C.; 72 hours for fungi; read-out: Minimum Inhibitory Concentration, Tv
Protocol: as §1, §5, §4

[9] = system: Aureobasidium pullulan (Ap); test: as above; assay type: cell-based, Aureobasidium pullulan ATCC 16622; conditions: read-out: Minimum Inhibitory Concentration, Ap
Protocol: as §1, §5, §4

Fusarium oxysporum (Fo) = test: as above; assay type: cell-based, Fusarium oxysporum ATCC 48112; conditions: malt yeast agar; 30° C.; 72 hours for fungi; read-out: Minimum Inhibitory Concentration, Fo
Protocol: as §1, §5, §4

[10] = 48 h, pH 6.8, read-out: Minimum Inhibitory Concentration, Bs
[11] = 48 h, pH 8.2, read-out: Minimum Inhibitory Concentration, Bs
[12] = pH 6.8, read-out: Minimum Inhibitory Concentration, Ea
[13] = pH 8.2, read-out: Minimum Inhibitory Concentration, Ea
[14] = pH 6.8, read-out: Minimum Inhibitory Concentration, Ec
[15] = pH 8.2, read-out: Minimum Inhibitory Concentration, Ec
[16] = 48 h, pH 8.2, read-out: Minimum Inhibitory Concentration, Kp
[17] = pH 6.8, nutrient agar, 30° C., 48 hours, read-out: Minimum Inhibitory Concentration, Kp
[18] = pH 6.8, read-out: Minimum Inhibitory Concentration, Pv
[19] = pH 8.2, read-out: Minimum Inhibitory Concentration, Pv
[20] = pH 6.8, read-out: Minimum Inhibitory Concentration, PRD
[21] = pH 8.2, read-out: Minimum Inhibitory Concentration, PRD
[22] = pH 6.8, read-out: Minimum Inhibitory Concentration, Sc
[23] = pH 8.2, read-out: Minimum Inhibitory Concentration, Sc
[24] = 48 h, pH 8.2, read-out: Minimum Inhibitory Concentration, Sa
[25] = pH 6.8, nutrient agar, 30° C., 48 hours, read-out: Minimum Inhibitory Concentration, Sa

Row | SMILES | MIC (Bacillus subtilis (Bs); [11]) [µg/mL] | MIC [1, 12] [µg/mL] | MIC [1, 13] [µg/mL] | MIC (Escherichia coli (Ec); [14]) [µg/mL] | MIC (Escherichia coli (Ec); [15]) [µg/mL] | MIC [2, 16] [µg/mL] | MIC [2, 17] [µg/mL] | MIC (Proteus vulgaris (Pv); [18]) [µg/mL] | MIC (Proteus vulgaris (Pv); [19]) [µg/mL] | MIC [3, 20] [µg/mL] | MIC [3, 21] [µg/mL] | MIC ([4]; pH 6.8, 30° C.) [µg/mL] | MIC ([4]; pH 8.2, 30° C.) [µg/mL] | MIC [5, 22] [µg/mL] | MIC [5, 23] [µg/mL] | MIC [6, 24] [µg/mL] | MIC (Candida albicans (Ca)) [µg/mL] | MIC [7] [µg/mL] | MIC [8] [µg/mL] | MIC (Trichoderma viride (Tv)) [µg/mL] | other results
1 | N#CC(C#N)=C1Sc2nc3ccccc3nc2S1 [Compound P, 1,3-dithiolo-(4,5-b)-quinoxaline-2-ylidene-propanedinitrile] | > 500 | > 500 | > 500 | > 500 | > 500 | > 500 | > 500 | > 500 | > 500 | > 500 | > 500 | > 500 | > 500 | > 500 | > 500 | > 500 | > 500 | 500 (≈ 1860 µM) | > 500 | > 500 | MIC (Bacillus subtilis (Bs); [10]): > 500 µg/mL; MIC [6, 25]: > 500 µg/mL; MIC (Aspergillus niger (An)): 500 µg/mL (≈ 1860 µM); MIC ([9]; malt yeast agar, 30° C., 48 hours for yeast and 72 hours for fungi): 500 µg/mL (≈ 1860 µM); MIC (Fusarium oxysporum (Fo)): > 500 µg/mL
2 | N#CC1=C(C#N)Sc2nc3cc(C(=O)c4ccccc4)ccc3nc2S1 [V, 7-benzoyl-1,4-dithiino-(2,3-b)-quinoxaline-2,3-dicarbonitrile] | > 500 | > 500 | > 500 | > 500 | > 500 | > 500 | > 500 | > 500 | > 500 | > 500 | > 500 | > 500 | > 500 | > 500 | > 500 | > 500 | 500 (≈ 1340 µM) | 250 (≈ 671 µM) | 500 (≈ 1340 µM) | 500 (≈ 1340 µM) | MIC (Bacillus subtilis (Bs); pH 6.8, nutrient agar, 30° C., 48 hours, read-out: Minimum Inhibitory Concentration, Bs): 50 µg/mL (≈ 134 µM); MIC ([6]; 48 h, pH 6.8, read-out: Minimum Inhibitory Concentration, Sa): 50 µg/mL (≈ 134 µM); MIC [9]: 250 µg/mL (≈ 671 µM); MIC (Fusarium oxysporum (Fo)): 500 µg/mL (≈ 1340 µM)
3 | COc1ccc2nc3c(nc2c1)SC(=C(C#N)C#N)S3 [U, 6-Methoxy-1,3-dithiolo-(4,5-b)-quinoxaline-2-ylidene-propanedinitrile] | > 500 | > 500 | > 500 | > 500 | > 500 | > 500 | > 500 | > 500 | > 500 | > 500 | > 500 | > 500 | > 500 | > 500 | > 500 | > 500 | > 500 | > 500 | > 500 | > 500 | MIC (Bacillus subtilis (Bs); [10]): > 500 µg/mL; MIC [6, 25]: > 500 µg/mL; MIC (Aspergillus niger (An)): > 500 µg/mL; MIC (Fusarium oxysporum (Fo)): > 500 µg/mL
